Source: publication PMC11963566, “A phase I, single-center, randomized, open-label, three-period crossover study to evaluate the drug–drug interaction between ZSP1273 and oseltamivir in healthy Chinese subjects” (Antimicrobial Agents and Chemotherapy, 2025)

Tests used:
[1] = cited from earlier work
[2] = cited from earlier work; remark: listed apart in the source
clinical = conditions: human

CCC(CC)O[C@@H]1C=C(C(=O)O)C[C@H](N)[C@H]1NC(C)=O [Oseltamivir carboxylate, oseltamivir carboxylate]
plasma protein binding rate [1]: approximately 3%
fraction excreted by the kidneys [2]: more than 99%
AUC(0-t) (clinical; in vivo, AUC0-t,ss, geometric mean): 5080 ng·h/mL
AUC (clinical; in vivo, AUC0-τ,ss, geometric mean): 3320 ng·h/mL
AUC(0-inf) (clinical; in vivo, AUC0-∞,ss, geometric mean): 5170 ng·h/mL
Cmax (clinical; in vivo, Cmax,ss, geometric mean): 393 ng/mL
Tmax (clinical; in vivo, po, Tmax,ss): 4 h
half-life (clinical; in vivo, po, t1/2,ss): 10.3 ± 1.6 h
k el (clinical; plasma, po, 75 mg): 1.92e-05 s⁻¹
AUC0-∞,ss, geometric mean ratio co-administration/monotherapy (all subjects, no-effect boundary 80%–125%): 87.1%
AUC0-t,ss, geometric mean ratio co-administration/monotherapy (human, in vivo): 86.7%
AUC0-τ,ss, geometric mean ratio co-administration/monotherapy (human, in vivo): 83.3%
AUC0-∞,ss, intra-individual coefficient of variation (human, in vivo): 8.4%
Cmax,ss, geometric mean ratio co-administration/monotherapy (human, in vivo): 80.4%
